The values that follow come from patent US5545547A, “Enzymes as agricultural chemical adjuvants” (priority 1992, dated 1996).

For data set [1], the system named is Pseudomonas mendocina ATCC 53552 lipase, crude preparation of Example 1(C) (includes Lipase 1 and Lipase 2). Description: Binding of p-nitrophenyl substrates and turnover kinetics, crude lipase preparation. Format: biochemical. To be noted: 0.1M Tris, 0.1 wt. Triton X-100, pH 8.0, 25° C. The source says: The recovered filtrate from the Amicon unit was concentrated to a volume of 3 liters on an Amicon ultrafiltration unit with two Romicon Pm 10 modules. The concentrated material was then dialyzed with 20 liters of 0.01M phosphate buffer, pH 7.5, to remove salts and color. Recovery at this stage averaged about 80%. Total activity for this crude preparation was 8.68×10^6 units. A unit of lipase activity is defined as the amount of enzyme which results in an increase of absorbance at 415 nm of 1.0/minute when incubated at 25° C. with 2.0 mM p-nitrophenylbutyrate in 0.1M pH 8.0 Tris-HCl buffer containing 0.1 wt. adjuvant Triton X-100.
The binding of three p-nitrophenyl substrates and the turnover kinetics were studied for the crude preparation of Example 1(C), where reaction conditions were 0.1M Tris with 0.1 wt. adjuvant Triton X-100, pH 8.0, at 25° C. The substrates were p-nitrophenyl caprylate, p-nitrophenyl laurate, and p-nitrophenyl palmitate, and the data is set out in Table

The next data set deals with Soybeans. Description: Greenhouse multispecies herbicide screen with/without P. mendocina enzyme. The class given is in vivo. Particulars: two weeks after treatment. An excerpt:
(§1) Several plant species including weeds and crops are used in these experiments.
(§2) A number of herbicides from various chemical classes were compared in a multispecies screen for percent chlorosis, necrosis and vigor reduction both with and without application of the enzyme from Pseudomonas mendocina ATCC 53552 described earlier. The herbicides were applied to various plants at the manufacturers recommended doses and at 10% and 40% of the recommended dose. Two different enzyme concentrations were used: 0.5 mg/ml (HE) and 0.05 mg/ml (LE) and applied at the rate of 40 gallons/acre. All spraying solutions were at pH 10 and contained 100 mm sodium phosphate each. Ratings were done at 6 and 12 days after the treatment. All the experiments were carried out in a greenhouse.
(§3) Chlorosis--figures represent percent of plants showing chlorosis.
(§4) Necrosis--figures represent percent of plants showing necrosis.
(§5) Vigor--figures represent percent of plants showing decreased vigor.
(§6) Phytotoxicity--figures represent the average percent of chlorosis, necrosis, and vigor for a given sample.
(§7) The method of Example 1 was used except that the enzyme was applied 2 hours prior to administering the agricultural chemical with the following results. Ratings were done two weeks after treatment

The next data set concerns Turnip. The data set is described as above. The class given is in vivo. Particulars: two weeks after treatment.
Description: as §1, §2, §3, §4, §5, §6, §7

For a further data set, the system named is soybean leaf discs. Description: Uptake of radiolabeled agricultural chemicals into leaf discs. Format: in vitro ADME. How it is done:
Leaf discs (1 cm diameter) were prepared from 9-13 day old soybean plants, and planed them on a nitrocellulose paper that was presoaked with 100 ug/ml stocptomycin in a petri dish. Radioactive chemicals were dissolved in 100 mM sodium phosphate buffer containing 0.05% TRITON X-100 surfactant [drawing 1] where n is an integer from 9 to 10 In addition to TRITON surfactant, (^14 C) uracil solution contained 0.4% ethanol, (^14 C) atrazine contained 10% ethanol (^14 C) indole acetic acid contained 2% ethanol and (^14 C) urea contained 0.2% ethanol. 5 ul of the radioactive chemical solution (9/uci/ml) was applied on the leaf disc and incubated for 5-7 hr at room temperature. After the incubation, leaf discs were rinsed 3 times with 0.025% TRITON X-100 surfactant solution and transferred into separate scintillation vials. Radioactivity taken up by each leaf disc was determined by a scintillation counter after adding 10 ml of Ecolite scintillation fluid into each vial. Ten leaf discs were used for each data point in all experiments. All radioactive chemicals were obtained from Amersham (U.S.A.). The specific activities of the chemicals were as follows:
Cutinase enzyme same as before.
Macerating enzyme, GC219, is an enzyme mixture sold by Genencor which comprises of cellulase, pectinase and hemicellulase.

The next data set deals with Trichoderma reesei QM6A. Kind of data set: Fungicide uptake in soybean plants, leaf extract rated for inhibition of fungal growth. More on the design: key: -no inhibition; +weak inhibition; ++=good inhibition; +++=strong inhibition. How it is done: The difoliate leaflets of 9-13 day old soybeam plants were treated with solutions of cutinase (100 ug/ml), BENOMYL fungicide [1-(butylcarbamoyl)-2-benzimidazolecarbamic acid methyl ester] (1 mg/ml), and GC219 (12.6 mg/ml) alone and BENOMYL fungicide [1-(butylcarbamoyl)-2-benzimidazolecarbamic acid methyl ester] plus enzymes. The solutions were dissolved in 100 mM sodium phosphate, pH 7 containing 0.5% TRITON surfactant [drawing 2] where n is an integer from 9 to 10 X-100. In addition to TRITON X-100 surfactant, [drawing 3] where n is an integer from 9 to 10 the BENOMYL fungicide [1-(butylcarbamoyl)-2-benzimidazolecarbamic acid methyl ester] contained 5% Dimethyl formamide. For each experiment 100 ul of solution was applied in 5 ul droplets to each difoliate leaflet. Duplicate plants were treated in this manner. The treated plants were incubated for two hours under normal greenhouse conditions. Identical solutions as those applied to the plants were also incubated for two hours to assure chemical stability under greenhouse conditions. After the incubation, the treated leaves were cut at the petiole and rinsed with a 0.05% TRITON X-100 surfactant [drawing 4] where n is an integer from 9 to 10 solution. Both difoliates were then ground with a mortar and pestle with 1.5 ml of a 100 mM sodium phosphate, pH 7 buffer. The extract was centrifuged and the supernatant was sterile filtered through a 0.45 um disc. The supernatant was then added to CMA media containing 2% agar to yield a final volume of 10 mls. 5 mls was them poured into a single well in a 6 well culture plate. Serial dilutions were made for each solution to achieve 1:1, 1:2 and 1:4 dilution of the plant extract in the agar.
Once the agar was solidified each well was innoculated with spores of Trichoderma reesei QM6A strain. The plates were incubated at 30° C. for 24 hours and the growth of T. reesei was rated.

A word on the Km: it is the concentration of substrate that gives half-maximal velocity. As to `CCCCCCCC(=O)Oc1ccc([N+](=O)[O-])cc1` [PNPC, p-nitrophenyl caprylate], in data set [1], the Km came out at 214 µM and the Vmax was 802 μmole/min/mg protein.
Take `CCNc1nc(Cl)nc(NC(C)C)n1` [ATRAZINE, Atrazine]: the “CHL (chlorosis)” value came to 55% with Soybeans (ATRAZINE 10% dose, High Enzyme); 38% with Soybeans (ATRAZINE 10% dose, Low Enzyme); 10% in the data set on Soybeans (ATRAZINE 10% dose, No Enzyme); 80% in the data set with Soybeans (ATRAZINE 40% dose, High Enzyme); 100% in the data set with Soybeans (ATRAZINE 40% dose, Low Enzyme); 55% in the data set with Soybeans (ATRAZINE 40% dose, No Enzyme). For the same molecule, the “CHL (chlorosis)” value was 25% in the data set on Turnip (ATRAZINE 10% dose, High Enzyme); 50% in the data set with Turnip (ATRAZINE 10% dose, Low Enzyme); 38% in the data set on Turnip (ATRAZINE 10% dose, No Enzyme); 75% in the data set on Turnip (ATRAZINE 40% dose, High Enzyme); 90% in the data set on Turnip (ATRAZINE 40% dose, Low Enzyme); 70% in the data set with Turnip (ATRAZINE 40% dose, No Enzyme). For the same molecule, the “NEC (necrosis)” value was 18% in the data set on Soybeans (ATRAZINE 10% dose, High Enzyme); 58% in the data set on Soybeans (ATRAZINE 10% dose, Low Enzyme); 33% in the data set on Soybeans (ATRAZINE 10% dose, No Enzyme); 88% in the data set on Soybeans (ATRAZINE 40% dose, High Enzyme); 100% with Soybeans (ATRAZINE 40% dose, Low Enzyme); 63% in the data set on Soybeans (ATRAZINE 40% dose, No Enzyme). Also, the “NEC (necrosis)” value with Turnip (ATRAZINE 10% dose, High Enzyme) was found to be 25%; with Turnip (ATRAZINE 10% dose, Low Enzyme) it was 38%; in the data set on Turnip (ATRAZINE 10% dose, No Enzyme), 23%; in the data set on Turnip (ATRAZINE 40% dose, High Enzyme), 88%; in the data set on Turnip (ATRAZINE 40% dose, Low Enzyme), 90%; in the data set on Turnip (ATRAZINE 40% dose, No Enzyme), 70%. The “PHY (phytotoxicity)” value in the data set on Soybeans (ATRAZINE 10% dose, High Enzyme) is 12%; with Soybeans (ATRAZINE 10% dose, Low Enzyme), 48%; in the data set with Soybeans (ATRAZINE 10% dose, No Enzyme), 34%; in the data set on Soybeans (ATRAZINE 40% dose, High Enzyme), 85%; with Soybeans (ATRAZINE 40% dose, Low Enzyme), 100%; in the data set with Soybeans (ATRAZINE 40% dose, No Enzyme), 58%. Also, the “PHY (phytotoxicity)” value came out at 25% with Turnip (ATRAZINE 10% dose, High Enzyme); 46% with Turnip (ATRAZINE 10% dose, Low Enzyme); 37% in the data set on Turnip (ATRAZINE 10% dose, No Enzyme); 84% in the data set on Turnip (ATRAZINE 40% dose, High Enzyme); 90% in the data set with Turnip (ATRAZINE 40% dose, Low Enzyme); 74% in the data set on Turnip (ATRAZINE 40% dose, No Enzyme). Moreover, the “VIG (vigor)” value in the data set with Soybeans (ATRAZINE 10% dose, High Enzyme) was 13%; in the data set with Soybeans (ATRAZINE 10% dose, Low Enzyme) it was 48%; with Soybeans (ATRAZINE 10% dose, No Enzyme), 50%; in the data set with Soybeans (ATRAZINE 40% dose, High Enzyme), 88%; with Soybeans (ATRAZINE 40% dose, Low Enzyme) it was 100%; in the data set with Soybeans (ATRAZINE 40% dose, No Enzyme), 55%. In addition, the “VIG (vigor)” value was 25% in the data set with Turnip (ATRAZINE 10% dose, High Enzyme); 50% in the data set on Turnip (ATRAZINE 10% dose, Low Enzyme); 50% in the data set with Turnip (ATRAZINE 10% dose, No Enzyme); 88% with Turnip (ATRAZINE 40% dose, High Enzyme); 90% in the data set with Turnip (ATRAZINE 40% dose, Low Enzyme); 83% in the data set with Turnip (ATRAZINE 40% dose, No Enzyme). Moreover, the “Uptake, Radioactivity (cpm)” value came to 24007 ± 3984 cpm in the data set with soybean leaf discs (Herbicide table, atrazine, without any addition of protein); 42684 ± 2333 cpm in the data set on soybean leaf discs (Herbicide table, pH 7.0, Cutinase 100 ug/ml, Active Enzyme); 24832 ± 2834 cpm in the data set with soybean leaf discs (Herbicide table, pH 7.0, Cutinase 100 ug/ml, Inactive Protein Control (A126)); 54133 ± 2874 cpm in the data set with soybean leaf discs (Herbicide table, pH 7.0, Cutinase 200 ug/ml, Active Enzyme); 31097 ± 2959 cpm in the data set on soybean leaf discs (Herbicide table, pH 7.0, Cutinase 200 ug/ml, Inactive Protein Control (A126)).
In the case of `O=C(O)Cc1c[nH]c2ccccc12` [Indole Acetic Acid], the “Background uptake, Radioactivity (cpm)” value in the data set with soybean leaf discs is 1292 cpm.
With `O=c1cc[nH]c(=O)[nH]1` [Uracil, uracil], the “Uptake, Radioactivity (cpm)” value in the data set with soybean leaf discs (pH 7) turned out to be 2090 ± 549 cpm; in the data set on soybean leaf discs (pH 10), 507 ± 162 cpm.
For the molecule `CN(C)C(=O)Nc1ccc(Cl)c(Cl)c1` [Diuron, diuron], the “Uptake, Radioactivity (cpm)” value in the data set with soybean leaf discs (Herbicide table, Diuron, without any addition of protein) is 5739 ± 1376 cpm; with soybean leaf discs (Herbicide table, pH 10, Cutinase 200 ug/ml, Active Enzyme), 8592 ± 803 cpm; with soybean leaf discs (Herbicide table, pH 10, Cutinase 200 ug/ml, Inactive Protein Control (A126)) it was 6878 ± 2126 cpm.
Regarding `NC(N)=O` [Urea, urea], the “Uptake, Radioactivity (cpm)” value came to 785 ± 141 cpm in the data set on soybean leaf discs (pH 7) and 398 ± 43 cpm in the data set with soybean leaf discs (pH 10).
Regarding `CCCCCCCCCCCC(=O)Oc1ccc([N+](=O)[O-])cc1` [PNPL, p-nitrophenyl laurate], in data set [1], the Michaelis constant (Km) turned out to be 167 µM and the Vmax was determined as 214 μmole/min/mg protein.
As for `CCCCNC(=O)n1c(NC(=O)OC)nc2ccccc21` [BENOMYL fungicide, 1-(butylcarbamoyl)-2-benzimidazolecarbamic acid methyl ester], the “Inhibition of Fungal Growth” value was “-” in the data set with Trichoderma reesei QM6A (BENOMYL alone (1 mg/ml on leaves), 1:1 dilution of plant extract); “-” in the data set on Trichoderma reesei QM6A (BENOMYL alone, 1:2 dilution); “-” in the data set with Trichoderma reesei QM6A (BENOMYL alone, 1:4 dilution); “+++” in the data set with Trichoderma reesei QM6A (Cutinase (100 ug/ml) and BENOMYL, 1:1 dilution); “++” with Trichoderma reesei QM6A (Cutinase and BENOMYL, 1:2 dilution); “+” in the data set on Trichoderma reesei QM6A (Cutinase and BENOMYL, 1:4 dilution). Besides, the “Inhibition of Fungal Growth” value is recorded as “++” in the data set on Trichoderma reesei QM6A (GC219 (12.6 mg/ml) and BENOMYL, 1:1 dilution); “+” with Trichoderma reesei QM6A (GC219 and BENOMYL, 1:2 dilution); “-” with Trichoderma reesei QM6A (GC219 and BENOMYL, 1:4 dilution).
Turning to `CCCCCCCCCCCCCCCC(=O)Oc1ccc([N+](=O)[O-])cc1` [PNPP, p-nitrophenyl palmitate], in data set [1], the Km was found to be 183 µM and the Vmax was found to be 112 μmole/min/mg protein.
